Assay [1] in a line: Inhibition of Staphylococcus aureus RN6390B quorum sensing system AgrC-1 using cephalosporin/nitrocefin as substrate by P3 reporter assay. For orientation: In a reporter assay the amount or activity of a reporter protein is the signal.
Assay [2] in a line: Competitive inhibition of Staphylococcus aureus SA502A quorum sensing system AgrC-2 after 24 hrs in presence of mouse IgG2a by YFP reporter gene assay.
The nature of assay [3]: Competitive inhibition of Staphylococcus aureus MW2 quorum sensing system AgrC-3 after 24 hrs in presence of mouse IgG2a by YFP reporter gene assay.
The nature of assay [4]: Competitive inhibition of Staphylococcus aureus quorum sensing system AgrC-3 by colorimetric analysis.
Assay [5] is described as follows: Competitive inhibition of Staphylococcus aureus RN9372 quorum sensing system AgrC-2 by colorimetric analysis.
Assay [6] is described as follows: Competitive inhibition of Staphylococcus aureus RN9222 quorum sensing system AgrC-1 by colorimetric analysis.

Where a SMILES comes first, the peptide text is derived from it.

What is called IC50 is the concentration that gives 50% inhibition. In assay [1], `CC[C@H](C)[C@@H]1NC(=O)[C@H](Cc2ccccc2)NC(=O)[C@H](CC(=O)O)NC(=O)[C@@H](NC(=O)[C@@H](NC(=O)[C@H](CO)NC(=O)[C@@H](N)Cc2ccc(O)cc2)[C@@H](C)O)CSC(=O)[C@H](CCSC)NC1=O` (HELM PEPTIDE1{Y.S.T.C.D.F.I.M}$PEPTIDE1,PEPTIDE1,4:R3-8:R2$$$V2.0) registered an IC50 of 20 nM.

Consider `CC(=O)N[C@H]1CSC(=O)[C@H](Cc2ccccc2)NC(=O)[C@H](Cc2ccc(O)cc2)NC(=O)[C@H](CO)NC(=O)[C@H](C)NC1=O` (HELM PEPTIDE1{[ac].C.A.S.Y.F}$PEPTIDE1,PEPTIDE1,2:R3-6:R2$$$V2.0), for which the IC50 in assay [2] is 160 nM; in assay [3] it was 13 nM.

Take `CC(=O)N[C@H]1CSC(=O)[C@H](Cc2ccccc2)NC(=O)[C@H](Cc2ccc(O)cc2)NC(=O)[C@H](C)NC(=O)[C@H](CC(N)=O)NC1=O` (HELM PEPTIDE1{[ac].C.N.A.Y.F}$PEPTIDE1,PEPTIDE1,2:R3-6:R2$$$V2.0): the IC50 in assay [4] stood at 40 nM; in assay [5], 420 nM; in assay [6], 380 nM.

Values taken from ChEMBL document CHEMBL3856252, “Truncated Autoinducing Peptides as Antagonists of Staphylococcus lugdunensis Quorum Sensing” (J Med Chem, 2016).
